This note sets out measurements from patent US11059808B2, “Substituted phenylpyrrolecarboxamides with therapeutic activity in HIV” (New York Blood Center, Inc., priority 2014, dated 2021).

What all share (assay type): cell-based
Data set [1] concerns HIV-1 pseudovirus pseudotyped with HXB2 Env. In words: microbe, parasite or virus in culture. Conditions: single cycle assay, TZM-bl cells infected with HIV-1 pseudovirus pseudotyped with HXB2 Env.
Data set [2] can be described thus: Cytotoxicity in TZM-bl cells (XTT). Conditions: human, XTT, 3 days. How it is done: (§1) The cytotoxicity of test compounds in TZM-bl cells was also measured by the XTT method described previously^7. […] The soluble intracellular formazan was quantitated colorimetrically at 450 nm 4 h later. The percent of cytotoxicity and the CC50 values were calculated as above. (See Table 4)
(Tetrazolium dyes change colour on reduction, which living cells bring about.)

The next data set deals with TZM-bl cells. The experiment in a line: Cytotoxicity in TZM-bl cells (XTT). The protocol:
as §1

In data set [3] the test system is panel of HIV-1 ENV-pseudoviruses (subtype A, A/D, A2/D, A/E, A/G, B, C and D). In words: microbe, parasite or virus in culture. As to conditions: Human immunodeficiency virus 1, TZM-bl, read-out: IC50 (μM) ± S.D., subtype A2/D, NIH # 11905, ENV QG393.60M.ENV.A1.
Where [4] appears, read: Human immunodeficiency virus 1, HXB2, TZM-bl.

In general, CC50 refers to the concentration that lowers cell viability or growth by half. Lower therefore signals harm at low concentration.

The structures appear in SMILES notation.

In data set [1], `CNCCC(NC(=O)c1ccc(-c2ccc(Cl)c(F)c2)[nH]1)c1nc(C)c(CO)s1` (single isomer, unassigned) [Compound 80] returned an IC50 of 9.1 ± 1.1 µM. Further, it took 22.3 ± 0.6 µM to reach half-maximal cytotoxicity in data set [2] (CC50 at 3 days).
On to `Cc1nc(C(CCN)NC(=O)c2ccc(-c3ccc(Cl)cc3)[nH]2)sc1CO` (single isomer, unassigned) [Compound 88], for which, in data set [1], the IC50 was 18.7 ± 0.7 µM. This compound registered a CC50 at 3 days in data set [2] of 41 ± 1.1 µM.
In data set [1] (setting [4]), `Cc1nc(C(CN(C)C)NC(=O)c2ccc(-c3ccc(Cl)cc3)[nH]2)sc1CO` (single isomer, unassigned) [Compound 62] displayed an IC50 of 22 ± 3.8 µM. In data set [2], this compound yielded a CC50 at 3 days of more than 40 µM.
On to `Cc1ccc(-c2ccc(C(=O)NC(CCN)c3nc(C)c(CO)s3)[nH]2)cc1F` (single isomer, unassigned) [Compound 84], for which, in data set [1], the IC50 was found to be 18.2 ± 2.6 µM. Further, it took 47 ± 0.6 µM to reach half-maximal cytotoxicity in data set [2] (CC50 at 3 days).
For the compound `CNCCC(NC(=O)c1ccc(-c2ccc(C)c(F)c2)[nH]1)c1nc(C)c(CO)s1` (single isomer, unassigned) [Compound 78], the IC50 in data set [1] turned out to be 10.4 ± 0.2 µM. In data set [2], this compound came in with a CC50 at 3 days of 36.4 ± 2.6 µM.
In the data set with TZM-bl cells (XTT, 3 days), `NCC(NC(=O)c1ccc(-c2cc(F)c(Cl)c(F)c2)[nH]1)c1ncc(CO)s1` (single isomer, unassigned) [Compound 120] registered a CC50 of 31.4 ± 1.1 µM. Moreover, the IC50 in data set [3] amounted to 1 ± 0.06 µM.
In data set [1] (setting [4]), `CC(C)(N)C(NC(=O)c1ccc(-c2ccc(Cl)c(F)c2)[nH]1)c1ncc(CO)s1` (single isomer, unassigned) [Compound 123] gave an IC50 of 0.56 ± 0.03 µM. Besides, half-maximal cytotoxicity in data set [2] (CC50 at 3 days) was put at 14.5 ± 2 µM.
For `Cc1nc(C(NC(=O)c2ccc(-c3ccc(Cl)cc3)[nH]2)C(C)(C)N)sc1CO` (single isomer, unassigned) [Compound 109], the IC50 in data set [1] (setting [4]) was 1.4 ± 0.5 µM. The same compound registered a CC50 at 3 days in data set [2] of 22.1 ± 1.8 µM.
The matching figures for `Cc1nc(C(NC(=O)c2ccc(-c3ccc(Cl)c(F)c3)[nH]2)C(C)(C)N)sc1CO` (single isomer, unassigned) [Compound 111]: 0.44 ± 0.03 µM and 14 ± 0.4 µM.
`Cc1nc(C(CCN(C)C)NC(=O)c2ccc(-c3ccc(Cl)c(F)c3)[nH]2)sc1CO` (single isomer, unassigned) [Compound 74] returned an IC50 in data set [1] of 4.6 ± 0.2 µM. Also, the CC50 at 3 days in data set [2] was determined as 22 ± 1 µM.
In data set [1], `CNCC(NC(=O)c1ccc(-c2ccc(Cl)c(F)c2)[nH]1)c1nc(C)c(CO)s1` (single isomer, unassigned) [Compound 56] displayed an IC50 of 1.6 ± 0.6 µM. In data set [2], this compound showed a CC50 at 3 days of approximately 21 µM.
On to `NCC(NC(=O)c1ccc(-c2ccc(Cl)cc2)[nH]1)c1ncc(CO)s1` (single isomer, unassigned) [Compound 104], for which the IC50 in data set [1] came out at 1.3 ± 0.1 µM. Besides, the CC50 at 3 days in data set [2] was 38 ± 1.5 µM.
Consider `Cc1ccc(-c2ccc(C(=O)NC(c3nc(C)c(CCO)s3)C3CCCCN3)[nH]2)cc1F` (single isomer, unassigned) [Compound 24], for which the CC50 at 3 days in data set [2] stood at 28.8 ± 1 µM.
As for `NCC(NC(=O)c1ccc(-c2cc(F)c(Cl)c(F)c2)[nH]1)c1ncc(CO)s1` (single isomer, unassigned) [Compound 119], it took 18 ± 0.5 µM to reach half-maximal cytotoxicity in data set [2] (CC50 at 3 days).
With `Cc1nc(C(CN(C)C)NC(=O)c2ccc(-c3ccc(Cl)c(F)c3)[nH]2)sc1CO` (single isomer, unassigned) [Compound 67], in data set [2], the CC50 at 3 days was approximately 29 µM.
Take `Cc1cc(C(=O)NC(CN)c2nc(C)c(CO)s2)[nH]c1-c1ccc(Cl)cc1` (single isomer, unassigned) [Compound 97]: the midpoint of cytotoxicity in data set [2], the CC50 at 3 days, lay at 5.2 ± 0.3 µM.
Still for that read-out and setting: under `Cc1ccc(-c2ccc(C(=O)NC(CN)c3nc(C)c(CO)s3)[nH]2)cc1F` (single isomer, unassigned) [Compound 43] stands not below 34 µM.
For `N=C(N)NCCCC(NC(=O)c1ccc(-c2ccc(Cl)cc2)[nH]1)C(=O)NCCO` (stereo not drawn) [Compound 4], in data set [2], the 50% cytotoxic concentration (CC50) at 3 days was more than 44 µM.
`Cc1ccc(-c2ccc(C(=O)NC(c3ncc(CO)s3)C(C)(C)N)[nH]2)cc1F` (single isomer, unassigned) [Compound 125]: the IC50 in data set [1] (setting [4]) was 0.63 ± 0.03 µM. This compound showed a CC50 at 3 days in data set [2] of 32.5 ± 0.3 µM.
Take `Cc1nc(C(NC(=O)c2ccc(-c3ccc(Cl)c(F)c3)[nH]2)C2CCCCN2)sc1CCO` (single isomer, unassigned) [Compound 26]: the CC50 at 3 days in data set [2] stood at 16.1 ± 0.2 µM.
`Cc1nc(C(NC(=O)c2ccc(-c3ccc(Cl)cc3)[nH]2)C2CCCCN2)sc1CCO` (single isomer, unassigned) [Compound 28] came in with a CC50 at 3 days in data set [2] of 17.3 ± 0.1 µM.
In data set [1], `Cc1ccc(-c2ccc(C(=O)NC(c3nc(C)c(CO)s3)C(C)(C)N)[nH]2)cc1F` (single isomer, unassigned) [Compound 113] showed an IC50 of 1.1 ± 0.1 µM. In addition, in data set [2], half-maximal cytotoxicity (CC50 at 3 days) was put at 17.1 ± 0.6 µM.
In turn, `Cc1nc(C(CN)NC(=O)c2ccc(-c3ccc(Cl)cc3)[nH]2)sc1CO` (single isomer, unassigned) [Compound 39] displayed a CC50 at 3 days in data set [2] not below 34 µM.
Compound `Cc1ccc(-c2ccc(C(=O)NC(CCN(C)C)c3nc(C)c(CO)s3)[nH]2)cc1F` (single isomer, unassigned) [Compound 72] gave a CC50 at 3 days in data set [2] of 36.4 ± 1 µM.
Consider `Cc1nc(C(NC(=O)c2ccc(-c3ccc(Cl)cc3)[nH]2)C2CCCCN2)sc1CCCO` (stereo not drawn) [Compound 32], for which it took 13.7 ± 1 µM to reach half-maximal cytotoxicity in data set [2] (CC50 at 3 days).
On the same count and under the same terms, under `Cc1ccc(-c2ccc(C(=O)NC(c3nc(C)c(CCCO)s3)C3CCCCN3)[nH]2)cc1F` (single isomer, unassigned) [Compound 30] stands 17 ± 0.7 µM; under `Cc1nc(C(CCN)NC(=O)c2ccc(-c3ccc(Cl)c(F)c3)[nH]2)sc1CO` (single isomer, unassigned) [Compound 86], 22.9 ± 0.6 µM.
In data set [1] (setting [4]), `Cc1nc(C(CN)NC(=O)c2ccc(-c3ccc(F)c(F)c3)[nH]2)sc1CO` (single isomer, unassigned) [Compound 121] displayed an IC50 of 3.4 ± 0.7 µM. For the same compound, the CC50 at 3 days in data set [2] is more than 51 µM. Moreover, in the data set on TZM-bl cells (printed "(30%)" without explanation, presumably toxicity at 51 μM), the “percentage in brackets after CC50 >51” value came out at 30%.
Compound `Cc1ccc(-c2ccc(C(=O)NC(c3nc(C)c(CO)[nH]3)C3CCCCN3)[nH]2)cc1F` (single isomer, unassigned) [Compound 37] displayed a CC50 at 3 days in data set [2] of 30 ± 0.3 µM.
For the compound `Cc1nc(C(CN)NC(=O)c2ncc(-c3ccc(Cl)cc3)[nH]2)sc1CO` (single isomer, unassigned) [Compound 95], in data set [2], the CC50 at 3 days was more than 51 µM.
In data set [2], `Nc1nc(CNC(=O)c2ccc(-c3ccc(Cl)cc3)[nH]2)n[nH]1` [Compound 2] displayed a CC50 at 3 days of more than 63 µM.
The compound `NS(=O)(=O)c1ccc(CCNC(=O)c2ccc(-c3ccc(Cl)cc3)[nH]2)cc1` [Compound 14] had a CC50 at 3 days in data set [2] of more than 50 µM.
In turn, `Cc1ccc(-c2ccc(C(=O)NC(CNC(=N)N)c3nc(C)c(CO)s3)[nH]2)cc1F` (single isomer, unassigned) [Compound 49] displayed a CC50 at 3 days in data set [2] of more than 37 µM.
Compound `COc1ccc(-c2ccc(C(=O)NC(CN)c3ncc(CO)s3)[nH]2)cc1OC` (single isomer, unassigned) [Compound 129] registered an IC50 in data set [1] (setting [4]) of more than 74.5 µM. Further, the CC50 at 3 days in data set [2] is more than 74.5 µM.
In data set [2], `N=C(N)NCCCC(NC(=O)c1ccc(-c2ccccc2)[nH]1)C(=O)NCCO` (stereo not drawn) [Compound 5] had a CC50 at 3 days of more than 47 µM.
In data set [1], `Cc1ccc(-c2ccc(C(=O)NC(CN(C)C)c3nc(C)c(CO)s3)[nH]2)cc1F` (single isomer, unassigned) [Compound 64] gave an IC50 of approximately 40 µM. This compound also displayed a CC50 at 3 days in data set [2] of approximately 40 µM.
Turning to `CNCC(NC(=O)c1ccc(-c2ccc(C)c(F)c2)[nH]1)c1ncc(CO)s1` (single isomer, unassigned) [Compound 118], in data set [1], the IC50 turned out to be 2 ± 0.3 µM. This compound also registered a CC50 at 3 days in data set [2] of 21 ± 0.8 µM.
The compound `COc1cc(C(=O)NC(CN)c2nc(C)c(CO)s2)[nH]c1-c1ccc(Cl)cc1` (single isomer, unassigned) [Compound 105] displayed an IC50 in data set [1] (setting [4]) of 8.8 ± 0.5 µM. The compound also showed a CC50 at 3 days in data set [2] of 16.7 ± 0.1 µM.
In the case of `N=C(N)NCCCC(NC(=O)c1ccc(-c2ccc(Cl)cc2)[nH]1)C(=O)NN1CCOCC1` (stereo not drawn) [Compound 9], the CC50 at 3 days in data set [2] was more than 40 µM.
Still for that read-out and setting: the same measure for `CS(=O)(=O)NCCNC(=O)C(CCCNC(=N)N)NC(=O)c1ccc(-c2ccc(Cl)cc2)[nH]1` (stereo not drawn) [Compound 6]: more than 37 µM; for `Cc1nc(C(CCN(C)C)NC(=O)c2ccc(-c3ccc(Cl)cc3)[nH]2)sc1CO` (single isomer, unassigned) [Compound 76]: 21.7 ± 1 µM; for `Cc1nc(C(NC(=O)c2ccc(-c3ccc(Cl)c(F)c3)[nH]2)C2CCCCN2)[nH]c1CO` (single isomer, unassigned) [Compound 35]: 25 ± 0.5 µM.
In turn, `CC(=O)NCC(NC(=O)c1ccc(-c2ccc(Cl)c(F)c2)[nH]1)c1nc(C)c(COC(C)=O)s1` (single isomer, unassigned) [Compound 66] had a CC50 at 3 days in data set [2] of more than 40 µM.
Take `NCC(NC(=O)c1ccc(-c2ccc(Cl)c(F)c2)[nH]1)c1ncc(CO)s1` (single isomer, unassigned) [Compound 101]: the IC50 in data set [1] stood at 0.57 ± 0.01 µM. The compound further yielded a CC50 at 3 days in data set [2] of 30.8 ± 1.9 µM.
In the case of `Cc1nc(C(CNC(=N)N)NC(=O)c2ccc(-c3ccc(Cl)cc3)[nH]2)sc1CO` (single isomer, unassigned) [Compound 45], the CC50 at 3 days in data set [2] was more than 37 µM.
`CNCCC(NC(=O)c1ccc(-c2ccc(Cl)cc2)[nH]1)c1nc(C)c(CO)s1` (single isomer, unassigned) [Compound 82] had an IC50 in data set [1] of 18.6 ± 1.5 µM. The compound also registered a CC50 at 3 days in data set [2] of 23 ± 1.2 µM.
For the compound `Cc1nc(C(CN)NC(=O)c2cnc(-c3ccc(Cl)cc3)[nH]2)sc1CO` (single isomer, unassigned) [Compound 93], the CC50 at 3 days in data set [2] is more than 51 µM.
